In patent publication US20180064742A1, “PET IMAGING TRACER FOR IMAGING PROSTATE CANCER” (THE REGENTS OF THE UNIVERSITY OF CALIFORNIA, priority 2015, published 2018):

System: tumors
Experiment: In vivo accumulation in tumors versus benign tissue, with tumor alkalinization models
Source text: Solid tumors are hypoxic with altered metabolism, resulting in secretion of acids into the extracellular matrix and lower relative pH, a feature associated with local invasion and metastasis. Therapeutic and diagnostic agents responsive to this microenvironment may improve tumor-specific delivery. In various embodiments, the invention reflects a general strategy whereby caged small-molecule drugs or imaging agents liberate their parent compounds in regions of low interstitial pH. In this manuscript, we present a new acid-labile prodrug method based on the glycosylamine linkage, and its application to a class of positron emission tomography (PET) imaging tracers, termed [^18F] fluorodeoxyglycosyl amines ([^18F] FDG amines). [^18F]FDG amines operate via a proposed two-step mechanism, in which an acid-labile precursor decomposes to form a common radiotracer, e.g., 2-deoxy-2-[18F]fluoro-D-glucose, which is subsequently accumulated by glycan, e.g., glucose, avid cells. […]
Imaging was performed using standard micro-positron emission tomography (microPET) techniques and data analysis. […] The resulting images are analyzed using open source Amide software (FIGS. 6, 13). For quantification of uptake in tissues, regions of interest (ROI) are drawn over tissues using the CT portion of the exam. […]

OC[C@H]1OC(NCc2ccc(-c3ccccc3)cc2)[C@H]([18F])[C@@H](O)[C@@H]1O (some centres unmarked)
relative accumulation in tumors over benign tissue (in vivo): greater relative accumulation in tumors over benign tissue
effect of tumor alkalinization on tumor accumulation (sodium bicarbonate treatment, or overexpression of carbonic anhydrase): could be attenuated upon tumor alkalinization
